# Data: US8609836B2, “4-aryl-2-anilino-pyrimidines” (Janssen Pharmaceutica NV, priority 2008, dated 2013)
# What was measured:
# PLK4 (h) = PLK4 (h) (Homo sapiens, UniProt O00444); assay: PLK-4 human kinase inhibition, scintillation proximity assay (SPA); format: biochemical; conditions: read-out: PLK4 pIC50 (converted)
# PLK3 (h) = PLK3 (h) (Homo sapiens, UniProt Q9H4B4); assay: PLK3 human kinase inhibition, SPA; format: biochemical; conditions: read-out: PLK3 pIC50 (converted)
# Method in brief: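 Radiometric scintillation proximity format at pH 8.0 (Hepes, MnCl2, DTT). The 2 μM biotin-peptide substrate is phosphorylated by PLK3 (h) (30 μg/ml) using 0.1 μM ATP traced with 33P, for 20 min at room temperature. EDTA stop; phosphopeptide captured on streptavidin beads and imaged.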
# MDA-MB-231 = assay: Cellular proliferation assay (Alamar blue), MDA-MB-231; format: cell-based; conditions: Homo sapiens, 10% FCS, 72 hours with compound, Alamar blue 24 h, read-out: MDA/MB231 (cellular proliferation assay, Table 4) (converted)
# Method in brief: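 After a 24 h compound-free attachment period, cells in 10% FCS medium are treated for 72 h at 37° C. Resazurin conversion is then quantified by fluorescence, with dye incubation lasting 4 h for HCT-116, 6 h for U87-MG and 24 h for A2780 or MDA-MB-231.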
# GSK3β (h) = GSK3β (h) (Homo sapiens, UniProt P49841); assay: GSK-3β human kinase inhibition, SPA; format: biochemical; conditions: read-out: GSK3b pIC50 (converted)
# Method in brief: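 Radiometric: 33P-labelled peptide captured on streptavidin SPA beads after EDTA stop and imaged on Leadseeker. Reaction ran 1 h at RT, 1 μM cold ATP with 2 nM [γ-33P]ATP, 1 μM biotin-peptide substrate, human GSK3β 1 μg/ml, pH 7.4 Tris buffer.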
# Chain of PLK4 (h) (O00444 whole entry): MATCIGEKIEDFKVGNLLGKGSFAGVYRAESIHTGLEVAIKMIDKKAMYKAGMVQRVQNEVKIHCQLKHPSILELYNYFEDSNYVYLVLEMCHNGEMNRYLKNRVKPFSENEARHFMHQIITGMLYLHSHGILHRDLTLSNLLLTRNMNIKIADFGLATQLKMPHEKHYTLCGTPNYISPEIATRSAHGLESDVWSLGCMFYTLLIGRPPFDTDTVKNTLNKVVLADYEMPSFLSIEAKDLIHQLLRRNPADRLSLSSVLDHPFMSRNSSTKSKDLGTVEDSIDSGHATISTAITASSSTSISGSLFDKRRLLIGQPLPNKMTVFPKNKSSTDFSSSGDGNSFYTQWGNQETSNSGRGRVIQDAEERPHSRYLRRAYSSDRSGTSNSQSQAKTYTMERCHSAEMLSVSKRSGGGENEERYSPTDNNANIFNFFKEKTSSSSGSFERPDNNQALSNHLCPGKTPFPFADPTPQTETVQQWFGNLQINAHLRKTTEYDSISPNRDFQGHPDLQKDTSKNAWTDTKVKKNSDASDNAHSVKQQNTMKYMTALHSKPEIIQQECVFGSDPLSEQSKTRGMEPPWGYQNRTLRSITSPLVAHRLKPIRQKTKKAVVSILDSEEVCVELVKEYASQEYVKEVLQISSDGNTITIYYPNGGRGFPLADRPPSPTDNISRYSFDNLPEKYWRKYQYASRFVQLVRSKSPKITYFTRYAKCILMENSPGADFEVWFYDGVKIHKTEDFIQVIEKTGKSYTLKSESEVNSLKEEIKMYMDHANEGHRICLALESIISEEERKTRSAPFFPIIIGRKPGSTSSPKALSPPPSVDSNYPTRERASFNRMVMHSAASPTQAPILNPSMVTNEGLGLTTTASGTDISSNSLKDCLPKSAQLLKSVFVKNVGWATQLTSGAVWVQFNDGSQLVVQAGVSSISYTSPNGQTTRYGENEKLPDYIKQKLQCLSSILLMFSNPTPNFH
# Chain of GSK3β (h) (P49841 whole entry): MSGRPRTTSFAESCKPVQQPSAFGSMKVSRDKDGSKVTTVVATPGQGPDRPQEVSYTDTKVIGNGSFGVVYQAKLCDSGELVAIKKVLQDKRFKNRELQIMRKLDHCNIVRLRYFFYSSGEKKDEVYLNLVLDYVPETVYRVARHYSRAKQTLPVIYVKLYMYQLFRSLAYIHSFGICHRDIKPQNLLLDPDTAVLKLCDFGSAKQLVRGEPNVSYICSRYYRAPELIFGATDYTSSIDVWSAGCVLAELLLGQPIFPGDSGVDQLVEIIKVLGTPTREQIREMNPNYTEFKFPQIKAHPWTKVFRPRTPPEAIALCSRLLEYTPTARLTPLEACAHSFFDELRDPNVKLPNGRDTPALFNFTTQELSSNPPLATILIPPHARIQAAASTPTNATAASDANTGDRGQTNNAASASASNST
# Chain of PLK3 (h) (Q9H4B4 whole entry): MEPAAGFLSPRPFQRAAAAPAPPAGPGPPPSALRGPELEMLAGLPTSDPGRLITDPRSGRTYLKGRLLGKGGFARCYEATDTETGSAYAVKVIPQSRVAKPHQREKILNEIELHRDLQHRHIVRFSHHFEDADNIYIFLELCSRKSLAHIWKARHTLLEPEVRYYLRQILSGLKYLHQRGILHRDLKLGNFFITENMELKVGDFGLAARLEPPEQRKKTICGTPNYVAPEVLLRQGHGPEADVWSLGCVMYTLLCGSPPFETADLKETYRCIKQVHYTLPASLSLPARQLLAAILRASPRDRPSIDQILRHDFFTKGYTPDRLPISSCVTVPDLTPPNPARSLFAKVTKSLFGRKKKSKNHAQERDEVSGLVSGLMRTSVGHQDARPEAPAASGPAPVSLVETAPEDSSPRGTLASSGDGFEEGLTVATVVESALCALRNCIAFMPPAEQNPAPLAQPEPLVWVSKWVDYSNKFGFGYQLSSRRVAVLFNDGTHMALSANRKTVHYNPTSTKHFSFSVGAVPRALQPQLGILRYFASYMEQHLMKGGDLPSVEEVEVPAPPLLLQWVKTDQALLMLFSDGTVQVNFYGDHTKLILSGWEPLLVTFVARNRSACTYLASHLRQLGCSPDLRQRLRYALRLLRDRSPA
IC50 (PLK4 (h)) [nM],IC50 (PLK3 (h)) [nM],IC50 (MDA-MB-231) [nM],IC50 (GSK3β (h)) [nM],SMILES
47.9,> 10000,> 10000,724,O=C1NCc2cccc(c2)-c2ccnc(n2)Nc2ccc(N3CCOCC3)c(c2)CN2CCC[C@@H]12 [Compound 1]
2400,> 10000,> 10000,3630,COc1ccc2cc1CN1CCC(CC1)C(=O)N(C)CCN(C)c1ccc(cn1)-c1ccnc(n1)N2 [Compound 4]
316,> 10000,363,741,O=C1NCCOc2ccc(cc2)-c2ccnc(n2)Nc2ccc(N3CCOCC3)c(c2)CN2CCC1CC2 [Compound 6]
316,> 10000,> 10000,372,O=C1NCCCOc2ccc(cc2)-c2ccnc(n2)Nc2ccc(N3CCOCC3)c(c2)CN2CCC[C@@H]12 [Compound 7]
417,> 10000,> 10000,1450,O=C1CN2CCN(CC2)Cc2cc(ccc2N2CCOCC2)Nc2nccc(n2)-c2ccc(cc2)OCCN1 [Compound 9]
1350,> 10000,> 10000,4900,COc1ccc2cc1CN1CCN(CC1)CC(=O)N(C)CCN(C)c1ccc(cn1)-c1ccnc(n1)N2 [Compound 14]
69.2,> 10000,1700,30.9,O=C1NCc2cccc(c2)-c2ccnc(n2)Nc2cc(CN3CCOCC3)cc(c2)CN2CCC[C@@H]12 [Compound 22]
77.6,> 10000,> 10000,87.1,CN(C)C(=O)c1ccc2cc1CN1CCC[C@H]1C(=O)NCc1cccc(c1)-c1ccnc(n1)N2 [Compound 24]
162,> 10000,2090,112,O=C1NCc2cccc(c2)-c2ccnc(n2)Nc2cc(CNC3CCOCC3)cc(c2)CN2CCC[C@@H]12 [Compound 29]
162,> 10000,257,24,CN(C)Cc1cc2cc(c1)Nc1nccc(n1)-c1cccc(c1)CNC(=O)[C@@H]1CCCN1C2 [Compound 30]
166,> 10000,1550,110,CN(C)CCNCc1cc2cc(c1)Nc1nccc(n1)-c1cccc(c1)CNC(=O)[C@@H]1CCCN1C2 [Compound 31]
178,> 10000,832,145,COCCNCc1cc2cc(c1)Nc1nccc(n1)-c1cccc(c1)CNC(=O)[C@@H]1CCCN1C2 [Compound 33]
219,> 10000,1820,129,O=C1NCc2cccc(c2)-c2ccnc(n2)Nc2cc(CNC3CCCCC3)cc(c2)CN2CCC[C@@H]12 [Compound 36]
288,> 10000,> 10000,162,COCCNC(=O)c1ccc2cc1CN1CCC[C@H]1C(=O)NCc1cccc(c1)-c1ccnc(n1)N2 [Compound 40]
347,> 10000,> 10000,263,O=C(NC1CCCCC1)c1ccc2cc1CN1CCC[C@H]1C(=O)NCc1cccc(c1)-c1ccnc(n1)N2 [Compound 41]
355,> 3020,1910,331,CN(C)CCNC(=O)c1ccc2cc1CN1CCC[C@H]1C(=O)NCc1cccc(c1)-c1ccnc(n1)N2 [Compound 42]

IC50 (PLK4 (h)) [nM],IC50 (PLK3 (h)) [nM],IC50 (MDA-MB-231) [nM],IC50 (GSK3β (h)) [nM],SMILES
427,> 10000,> 10000,204,O=C(NC1CCOCC1)c1ccc2cc1CN1CCC[C@H]1C(=O)NCc1cccc(c1)-c1ccnc(n1)N2 [Compound 46]
661,> 10000,> 10000,9120,O=C1NCCCc2cc(ccn2)-c2ccnc(n2)Nc2ccc(N3CCOCC3)c(c2)CN2CCCC12 (stereo not shown) [Compound 48]
537,> 10000,> 10000,2750,CN1CCNC(=O)C2CCN(CC2)Cc2cc(Br)cc(c2)Nc2nccc(n2)-c2ccc(cc2)C1 [Compound 60]
724,> 10000,> 10000,7590,CC(C)Nc1cc2cc(c1)Nc1nccc(n1)-c1ccc(cc1)CN(C)CCNC(=O)C1CCN(CC1)C2 [Compound 61]
1550,> 10000,> 10000,5890,CN1CCNC(=O)C2CCN(CC2)Cc2cc(cc(N3CCOCC3)c2)Nc2nccc(n2)-c2ccc(cc2)C1 [Compound 68]
2340,> 10000,> 10000,> 10000,CN1CCCNC(=O)C2CCN(CC2)Cc2cc(cc(N3CCOCC3)c2)Nc2nccc(n2)-c2ccc(cc2)C1 [Compound 72]
4900,> 10000,7590,> 10000,CN1CCCNC(=O)C2CCN(CC2)Cc2cccc(c2)Nc2nccc(n2)-c2ccc(cc2)C1 [Compound 78]
6310,> 10000,> 10000,> 10000,CN1CCNC(=O)C2CCN(CC2)Cc2cccc(c2)Nc2nccc(n2)-c2ccc(cc2)C1 [Compound 82]
5370,> 10000,> 10000,1550,O=C1NCCNc2cc(ccn2)-c2ccnc(n2)Nc2ccc(N3CCOCC3)c(c2)CN2CCC1CC2 [Compound 84]
407,> 10000,8130,214,C[C@H]1NCc2cc(ccc2N2CCOCC2)Nc2nccc(n2)-c2cccc(c2)OCCCNC1=O [Compound 87]
447,> 10000,6760,195,C[C@@H]1NCc2cc(ccc2N2CCOCC2)Nc2nccc(n2)-c2cccc(c2)OCCCNC1=O [Compound 88]
525,> 10000,> 10000,589,O=C1NCCCOc2cccc(c2)-c2ccnc(n2)Nc2ccc(N3CCOCC3)c(c2)CN[C@H]1CO [Compound 89]
1410,> 10000,> 10000,2690,O=C1NCCCOc2cccc(c2)-c2ccnc(n2)Nc2ccc(N3CCOCC3)c(c2)CN[C@H]1Cc1ccccc1 [Compound 91]
398,> 10000,2510,1320,O=C1NCCCOc2ccc(cc2)-c2ccnc(n2)Nc2ccc(N3CCOCC3)c(c2)CN2CCC1CC2 [Compound 92]
398,> 10000,> 10000,2820,O=C1NCCCOc2cccc(c2)-c2ccnc(n2)Nc2ccc(N3CCOCC3)c(c2)CN2CCC[C@@H]12 [Compound 96]
1100,> 10000,> 10000,1550,O=C1CN2CCN(CC2)Cc2cc(ccc2N2CCOCC2)Nc2nccc(n2)-c2cccc(c2)OCCCN1 [Compound 103]

SMILES,IC50 (PLK4 (h)) [nM],IC50 (PLK3 (h)) [nM],IC50 (MDA-MB-231) [nM],IC50 (GSK3β (h)) [nM]
C[C@@H]1NCc2cc(ccc2N2CCOCC2)Nc2nccc(n2)-c2ccc(cc2)OCCCNC1=O [Compound 5],162,> 10000,> 10000,135
CN1CCCNC(=O)[C@H](CO)NCc2cc(cc(N3CCOCC3)c2)Nc2nccc(n2)-c2ccc(cc2)C1 [Compound 10],513,> 10000,> 10000,~10000
CN1CCCNC(=O)[C@@H]2CCCN2Cc2cc(cc(N3CCOCC3)c2)Nc2nccc(n2)-c2ccc(cc2)C1 [Compound 16],617,> 10000,> 10000,> 10000
COc1ccc2cc1CN(C)CCCNC(=O)C1CCN(CC1)Cc1cc(cc(NC(C)C)c1)Nc1nccc-2n1 [Compound 70],1580,> 10000,> 10000,> 10000
COc1ccc2cc1CN(C)CCNC(=O)C1CCN(CC1)Cc1cc(cc(NC(C)C)c1)Nc1nccc-2n1 [Compound 75],3090,> 10000,> 10000,> 10000
COc1ccc2cc1CN(C)CCCNC(=O)C1CCN(CC1)Cc1cc(Br)cc(c1)Nc1nccc-2n1 [Compound 76],3240,> 10000,6760,> 10000
COc1ccc2cc1CN(C)CCNC(=O)C1CCN(CC1)Cc1cc(cc(N3CCOCC3)c1)Nc1nccc-2n1 [Compound 77],4790,> 10000,> 10000,3800
COc1ccc2cc1CN(C)CCCNC(=O)C1CCN(CC1)Cc1cc(cc(N3CCOCC3)c1)Nc1nccc-2n1 [Compound 80],5370,> 10000,> 10000,> 10000
COc1ccc2cc1CN(C)CCCNC(=O)C1CCN(CC1)Cc1cccc(c1)Nc1nccc-2n1 [Compound 81],5500,> 10000,> 10000,> 10000
COc1ccc2cc1CN(C)CCNC(=O)C1CCN(CC1)Cc1cccc(c1)Nc1nccc-2n1 [Compound 83],> 10000,> 10000,> 10000,> 10000
C[C@H]1NCc2cc(ccc2N2CCOCC2)Nc2nccc(n2)-c2ccc(cc2)OCCCNC1=O [Compound 86],209,> 10000,> 10000,69.2
